Source: patent US10933057B2 (priority 2017, dated 2021)

Test system: patients
Set-up: species or system human
Conditions: in vivo

CCCCC(C)(O)C/C=C/[C@H]1[C@H](O)CC(=O)[C@@H]1CCCCCCC(=O)OC (mixture of isomers) [Misoprostol]
Pain (No pain −, Pain +): +
